Results published in PubChem BioAssay (NCI).
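Exposure lasted 48 hours, with cells grown in 96-well plates and compounds tested at five concentrations. At the TGI there is no net growth.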

Experiments:
Test in all cases: inhibition of tumour cell growth, NCI panel, 48 h
[1] = system: NCI-H226 lung
[2] = system: RXF-631 renal
[3] = system: HL-60(TB) leukemia
[4] = system: K-562 leukemia
[5] = system: HCT-116 colon
[6] = system: TK-10 renal
[7] = system: IGROV1 ovarian
[8] = system: SF-268 CNS
[9] = system: LXFL 529 NSCLC
[10] = system: RXF 393 renal
[11] = system: HCC-2998 colon
[12] = system: A498 renal
[13] = system: SK-MEL-5 melanoma
[14] = system: KM20L2 colon
[15] = system: SN12C renal
[16] = system: SF-539 CNS
[17] = system: M19-MEL melanoma
[18] = system: SNB-19 CNS
[19] = system: SK-OV-3 ovarian
[20] = system: MOLT-4 leukemia
[21] = system: CAKI-1 renal
[22] = system: LOX IMVI melanoma
[23] = system: 786-0 renal
[24] = system: EKVX NSCLC
[25] = system: NCI-H23 lung
[26] = system: SK-MEL-2 melanoma
[27] = system: SW-620 colon
[28] = system: OVCAR-5 ovarian
[29] = system: A549 NSCLC
[30] = system: OVCAR-8 ovarian
[31] = system: SNB-75 CNS
[32] = system: NCI-H460 lung
[33] = system: COLO 205 colon
[34] = system: SNB-78 CNS
[35] = system: UACC-62 melanoma
[36] = system: HOP-62 NSCLC
[37] = system: HOP-92 NSCLC
[38] = system: UO-31 renal
[39] = system: DMS 114 small cell lung
[40] = system: ACHN renal
[41] = system: U251 CNS
[42] = system: NCI-H522 lung
[43] = system: SK-MEL-28 melanoma
[44] = system: RPMI-8226 leukemia
[45] = system: HCT-15 colon
[46] = system: DLD-1 colon
[47] = system: MALME-3M melanoma
[48] = system: M14 melanoma
[49] = system: OVCAR-4 ovarian
[50] = system: CCRF-CEM leukemia
[51] = system: XF 498 CNS
[52] = system: SF-295 CNS
[53] = system: KM12 colon
[54] = system: HT29 colon
[55] = system: OVCAR-3 ovarian
[56] = system: UACC-257 melanoma
[57] = system: SR leukemia

Measured: TGI

O=C(c1ccccc1)N1C2C3CC(OCc4ccccc4)(OCc4ccccc4)C(O3)C21 (stereo not drawn)
> 100 µM: [1] | [2] | [3] | [4] | [5] | [6] | [7] | [8] | [9] | [10] | [11] | [12] | [13] | [14] | [15] | [16] | [17] | [18] | [19] | [20] | [21] | [22] | [23] | [24] | [25] | [26] | [27] | [28] | [29] | [30] | [31] | [32] | [33] | [34] | [35] | [36] | [37] | [38] | [39] | [40] | [41] | [42] | [43] | [44] | [45] | [46] | [47] | [48] | [49] | [50] | [51]

C/C(CC(=O)Nc1ccccc1[N+](=O)[O-])=N\NC(N)=O
> 100 µM: [1] | [2] | [3] | [4] | [5] | [6] | [7] | [52] | [8] | [53] | [9] | [10] | [11] | [13] | [14] | [16] | [17] | [54] | [19] | [20] | [22] | [23] | [55] | [56] | [24] | [25] | [26] | [27] | [28] | [29] | [30] | [31] | [32] | [33] | [34] | [35] | [36] | [37] | [38] | [39] | [40] | [41] | [42] | [43] | [44] | [46] | [47] | [48] | [50] | [51]

CC1CC(c2ccc(Cl)cc2)=Nc2ccccc2S1 (stereo not drawn)
> 100 µM: [1] | [2] | [3] | [4] | [5] | [6] | [7] | [52] | [8] | [53] | [9] | [10] | [11] | [12] | [14] | [15] | [16] | [17] | [18] | [54] | [19] | [20] | [23] | [55] | [56] | [24] | [25] | [26] | [27] | [28] | [29] | [30] | [31] | [32] | [33] | [34] | [35] | [36] | [38] | [39] | [40] | [41] | [42] | [43] | [44] | [45] | [46] | [47] | [48] | [49] | [50] | [57]
